Source: US7910579B2, “Benzoxazole derivatives” (Tohoku University, priority 2006, dated 2011)
Like-named read-outs stand apart in the source and are kept apart here.

How the values were obtained:
Amyloid β protein 1-40 = target: T1, Amyloid β protein 1-40 (Homo sapiens, UniProt P05067); experiment: Fluorescence Congo Red Method; type: binding; conditions: 1 h, compound 10 μM, amyloid β protein 5 μM
T1 construct: Amyloid β protein 1-40 (bought from Peptide Laboratory); purchased Peptide Laboratory

[1] = target: T2, amyloid β protein in the brain section of an Alzheimer disease patient (Homo sapiens, UniProt P05067); experiment: Staining test on a brain section of an Alzheimer disease patient: amyloid β protein; type: binding; conditions: 100 μM solution in 50% ethanol, 10 minutes, paraffin brain section
T2 construct: from tissue; host or cells: paraffin-embedded temporal lobe and hippocampus of Alzheimer disease patients
In short: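 Deparaffinized 6 or 8 μm temporal lobe/hippocampus sections from Alzheimer and normal senile brains, autofluorescence quenched with KMnO4 then K2S2O5/oxalic acid, stained 10 min with 100 μM compound in 50% ethanol and imaged by fluorescence microscopy. Amyloid β immunostaining with 6F/3D antibody and ABC/DAB detection used for comparison.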

[2] = Congo red 0.1 μM, read-out: Binding Percentage of Compound in the presence of 0.1 μM CR
[3] = Congo red 0.3 μM, read-out: Binding Percentage of Compound in the presence of 0.3 μM CR
[4] = Congo red 1 μM, read-out: Binding Percentage of Compound in the presence of 1 μM CR

T2 sequence (P05067 672-713 limits assumed): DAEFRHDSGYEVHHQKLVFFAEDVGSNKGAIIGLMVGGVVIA
T1 sequence (P05067 672-711): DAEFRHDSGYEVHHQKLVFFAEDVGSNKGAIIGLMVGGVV

Row | Structure (SMILES) | activity at 10 µM (Amyloid β protein 1-40; [2]) [%] | activity at 10 µM (Amyloid β protein 1-40; [3]) [%] | activity at 10 µM (Amyloid β protein 1-40; [4]) [%] | Binding to (staining of) amyloid β protein in the brain section of an Alzheimer disease patient [1]
1 | CN(C)c1ncc(/C=C/c2nc3ccc(OC(CO)CF)cc3o2)s1 (centres unmarked) [THK-763, (E)-6-[(1-fluoromethyl-2-hydroxy)ethoxy]-2-[2-[2-dimethylamino-thiazol-5-yl]ethenyl]benzoxazole] | 54.7 | 22.9 | 7.5 | white space arrow indicates amyloid β protein
2 | OCC(CF)Oc1ccc2nc(/C=C/c3cnc(N4CCOCC4)s3)oc2c1 (centres unmarked) [THK-702, (E)-2-[2-(2-morpholinothiazol-5-yl)ethenyl]-6-[(1-fluoromethyl-2-hydroxy)ethoxy]-benzoxazole] | 74.9 | 37.3 | 0.8 | white space arrow indicates amyloid β protein
3 | CNc1ncc(/C=C/c2nc3ccc(OC(CO)CF)cc3o2)s1 (centres unmarked) [THK-761, (E)-6-[(1-fluoromethyl-2-hydroxy)ethoxy]-2-[2-[2-methylaminothiazol-5-yl]ethenyl]-benzoxazole] | 55.2 | 21.6 | 7 | white space arrow indicates amyloid β protein
4 | OCC(CF)Oc1ccc2nc(/C=C/c3cnc(N4CCCC4)s3)oc2c1 (centres unmarked) [THK-752, (E)-6-[(1-fluoromethyl-2-hydroxy)ethoxy]-2-[2-[2-(pyrrolidin-1-yl)-thiazol-5-yl]ethenyl]benzoxazole] | 50.4 | 20.6 | 11.3 | white space arrow indicates amyloid β protein
5 | FCCOc1ccc2nc(/C=C/c3cnc(N4CCOCC4)s3)oc2c1 [THK-525, 6-(2-fluoro-ethoxy)-2-[2-(2-morpholin-4-yl-thiazol-5-yl)-vinyl]-benzoxazole] | 61.4 | 24.1 | -6.4 | bound to the amyloid β protein
